Measurements taken from patent US20040138064A1, “Adjuvant for water soluble herbicides” (priority 2002, published 2004).

What was measured:
Velvetleaf = assay: Cabinet spray of glyphosate (about 0.63 lb AI per 10 gallons per acre) with or without sulfate adjuvant on velvetleaf; format: in vivo, ipomoea hederacea (L.) jacq. Var. integriuscula gray; details: for Velvet Leaf % Control 7 DAT / Velvet Leaf % Control 14 DAT / Velvet Leaf % Control 21 DAT / Velvet Leaf Fresh Weight 21 DAT: no sulfate adjuvant
Text: (§1) The formulations shown in Table 1 and Table 2 are either glyphosate and ammonium sulfate (AMS) or glyphosate and isopropylammonium sulfate (MIPAS). In Table 1 and Table 2, 0 ppm hardness refers to the absence of minerals such as calcium ions and 1000 ppm hardness refers to the amount of calcium ions present. The moles of sulfate indicate the amount of isopropylammonium sulfate or ammonium sulfate per liter. The aqueous solution was applied to the plots at a level of 10 gallons per acre. The two tested plants were Morningglory Entireleaf ([…]) and Velvetleaf ([…]). The term YBI in the Figures indicates the adjuvant was isopropylammonium sulfate.
(§2) The herbicidal solutions were applied in a cabinet using a Lodrift nozzle having a nozzle size 110015. The spray apparatus was operated at 40 psi using air as the propellant and water as a carrier. The boom height was 13.5 inches. The ground speed was 2.6 miles per hour. The morningglory was at the three-leaf stage when the herbicidal solution was applied. The velvetleaf was 4-6 inches in height when the herbicidal solution was applied. The normalized spray volume was 10 gallons per acre.
(§3) The Figures show values of pounds of ammonium sulfate or isopropylammonium sulfate per hundred gallons. The actual solutions used were nominally ten gallons of the sulfate in water, e.g. one-tenth of the sulfate per hundred gallons of carrier, with twenty fluid ounces of glyphosate. Twenty fluid ounces of glyphosate contains about 0.63 pounds of glyphosate active ingredient (AI) reported as the isopropylammonium. The glyphosate active ingredient (AI) as the isopropylammonium salt is related to the glyphosate acid equivalents (AE) by the formula: (0.7142)(AI)=AE.
(§4) FIGS. 1 and 3 show the fresh weight of morningglory and velvetleaf, respectively. The fresh weight was determined by cutting the stem of the plant flush with the ground and weighing the plant. The weight is reported as grams per pot since a single plant was grown in each pot. FIGS. 2 and 4 show the percent control at 7, 14 and 21 days for morningglory and velvetleaf, respectively.
(§5) Bartlett's test (commonly used in the agricultural business) was used to statistically analyze the results.

soybeans = assay: Greenhouse spray of glyphosate (0.75 lb AI per 10 gallons per acre) with or without sulfate adjuvant on soybean; format: in vivo, Glycine max; details: for height reduction of soybean, statistical comparison with the no adjuvant case / weight reduction of soybean, statistical comparison with the no adjuvant case: 0 ppm water hardness and 342 ppm water hardness; for Plant Height Soybean % Control 15 DAT / Plant Weight Soybean % Control 15 DAT: no sulfate adjuvant
Text: (§6) The formulations shown in Table 3 and Table 4 are either glyphosate and ammonium sulfate (AMS) or glyphosate and isopropylammonium sulfate (MIPAS). In Table 3 and Table 4, 0 ppm hardness refers to the absence of minerals such as calcium ions and 342 ppm hardness refers to the amount of calcium ions present. The moles of sulfate indicate the amount of isopropylammonium sulfate or ammonium sulfate per liter. The aqueous solution was applied to the plots at a level of 10 gallons per acre. The two tested plants were soybeans (Glycine max) and grain sorghum (Milo), (Sorghum bicolar).
(§7) The herbicidal solutions were applied in a greenhouse using a Spray chamber with an FF nozzle having a nozzle size 8001EVS. The spray apparatus was operated at 38 psi and the height of the nozzle was 9.75 inches. The watering frequency was every 6 hours for 5 minutes. The daytime temperature was 85° F. and the nighttime temperature was 70° F. with a 16 hour day. The soybean was 4-4.5 inches with one trifoliate leaf present when the herbicidal solution was applied. The grain sorghum was 4-8 inches with 3-4 leaves present when the herbicidal solution was applied.
(§8) The Figures show values of moles of ammonium sulfate or isopropylammonium sulfate per liter. The actual solution used on the grain sorghum contained 0.13 pounds of glyphosate active ingredient per 10 gallons of water per acre. The actual solution used on the soybean contained 0.75 pounds glyphosate active ingredient per 10 gallons of water per acre.
(§9) FIGS. 5 and 9 show the height of sorghum and soybean, respectively, when distilled water was used, as a percent reduction of the height of the control after 15 days. FIGS. 6 and 10 show the height of sorghum and soybean, respectively, when hard water was used, as a percent reduction of the height of the control after 15 days. FIGS. 7 and 11 show the fresh weight of sorghum and soybean, respectively, when distilled water was used, as a percent reduction of the weight of the control after 15 days. FIGS. 8 and 12 show the fresh weight of sorghum and soybean, respectively, when hard water was used, as a percent reduction of the weight of the control after 15 days. The plants were harvested and weighed to determine the fresh weight.

grain sorghum (Milo) = assay: Greenhouse spray of glyphosate (0.13 lb AI per 10 gallons per acre) with or without sulfate adjuvant on grain sorghum; format: in vivo, Sorghum bicolar; details: for Plant Height Sorghum % Control 15 DAT / Plant Weight Sorghum % Control 15 DAT: no sulfate adjuvant
Text: as §6, §7, §8, §9, §5

Morningglory Entireleaf = assay: Cabinet spray of glyphosate (about 0.63 lb AI per 10 gallons per acre) with or without sulfate adjuvant on morningglory; format: in vivo, abutilon theophrasti medik; details: for Morning Glory % Control 7 DAT / Morning Glory % Control 14 DAT / Morning Glory % Control 21 DAT / Morning Glory Fresh Weight 21 DAT: no sulfate adjuvant
Text: as §1, §2, §3, §4

[1] = 342 ppm of water hardness, three highest concentrations of MIPAS, two higher concentrations of AMS
[2] = water hardness 0 ppm, AMS at the two highest concentrations, all MIPAS concentrations
[3] = water hardness 1000 ppm, higher concentrations of AMS, all MIPAS
[4] = water hardness 1000 ppm, two higher concentrations of AMS, all the MIPAS treatments

SMILES: N.N.O=S(=O)(O)O [AMS, ammonium sulfate]
- fresh weight of velvetleaf, statistical comparison with no adjuvant (Bartlett's test) (Velvetleaf; water hardness 0 ppm): no statistical difference
- fresh weight of velvetleaf, statistical comparison with no adjuvant (Bartlett's test) (Velvetleaf; water hardness 1000 ppm, MIPAS at the two higher concentrations): no statistical difference
- height reduction of soybean, statistical comparison with the no adjuvant case (soybeans): not significantly different from the no adjuvant case
- weight reduction of soybean, statistical comparison with the no adjuvant case (soybeans): not significantly different from the no adjuvant case
- fresh weight of sorghum, statistical comparison with the no adjuvant case (Bartlett's test) (grain sorghum (Milo); 0 ppm water hardness): not significantly different from the no adjuvant case
- height reduction of sorghum, statistical comparison with the no adjuvant case (Bartlett's test) (grain sorghum (Milo); 0 ppm water hardness): not significantly different from the no adjuvant case
- fresh weight of sorghum, statistical comparison with the no adjuvant case (Bartlett's test) (grain sorghum (Milo); [1]): significantly different than the no adjuvant case
- height reduction of morningglory, statistical comparison with the no adjuvant case (Bartlett's test) (Morningglory Entireleaf; [2]): statistically different from the no adjuvant case
- fresh weight of morningglory, statistical comparison with the no adjuvant case (Bartlett's test) (Morningglory Entireleaf; [3]): statistical difference
- height reduction of morningglory, statistical comparison with the no adjuvant case (Bartlett's test) (Morningglory Entireleaf; [4]): statistically different from the no adjuvant case

SMILES: O=C(O)CNCP(=O)(O)O [Glyphosate, N-phosphonomethylglycine]
- Velvet Leaf % Control 7 DAT (Velvetleaf; water hardness 0 ppm): 52%
- Velvet Leaf % Control 14 DAT (Velvetleaf; water hardness 0 ppm): 84%
- Velvet Leaf % Control 21 DAT (Velvetleaf; water hardness 0 ppm): 88%
- Velvet Leaf Fresh Weight 21 DAT (Velvetleaf; water hardness 0 ppm): 1.1 grams per pot
- Velvet Leaf % Control 7 DAT (Velvetleaf; water hardness 1000 ppm): 48%
- Velvet Leaf % Control 14 DAT (Velvetleaf; water hardness 1000 ppm): 56%
- Velvet Leaf % Control 21 DAT (Velvetleaf; water hardness 1000 ppm): 52%
- Velvet Leaf Fresh Weight 21 DAT (Velvetleaf; water hardness 1000 ppm): 1.8 grams per pot
- Plant Height Soybean % Control 15 DAT (soybeans; water hardness 0 ppm): 47.55%
- Plant Weight Soybean % Control 15 DAT (soybeans; water hardness 0 ppm): 75.60%
- Plant Height Soybean % Control 15 DAT (soybeans; water hardness 342 ppm): 47.77%
- Plant Weight Soybean % Control 15 DAT (soybeans; water hardness 342 ppm): 59.20%
- Plant Height Sorghum % Control 15 DAT (grain sorghum (Milo); water hardness 0 ppm): 41.04%
- Plant Weight Sorghum % Control 15 DAT (grain sorghum (Milo); water hardness 0 ppm): 59.86%
- Plant Height Sorghum % Control 15 DAT (grain sorghum (Milo); water hardness 342 ppm): 14.55%
- Plant Weight Sorghum % Control 15 DAT (grain sorghum (Milo); water hardness 342 ppm): 40.97%
- Morning Glory % Control 7 DAT (Morningglory Entireleaf; water hardness 0 ppm): 56%
- Morning Glory % Control 14 DAT (Morningglory Entireleaf; water hardness 0 ppm): 56%
- Morning Glory % Control 21 DAT (Morningglory Entireleaf; water hardness 0 ppm): 50%
- Morning Glory Fresh Weight 21 DAT (Morningglory Entireleaf; water hardness 0 ppm): 1.4 grams per pot
- Morning Glory % Control 7 DAT (Morningglory Entireleaf; water hardness 1000 ppm): 51%
- Morning Glory % Control 14 DAT (Morningglory Entireleaf; water hardness 1000 ppm): 48%
- Morning Glory % Control 21 DAT (Morningglory Entireleaf; water hardness 1000 ppm): 46%
- Morning Glory Fresh Weight 21 DAT (Morningglory Entireleaf; water hardness 1000 ppm): 1.9 grams per pot

SMILES: CC(C)N.CC(C)N.O=S(=O)(O)O [MIPAS, isopropylammonium sulfate]
- fresh weight of velvetleaf, statistical comparison with no adjuvant (Bartlett's test) (Velvetleaf; water hardness 0 ppm): no statistical difference
- height reduction of velvetleaf, statistical comparison with the no adjuvant case (Bartlett's test) (Velvetleaf; water hardness 0 ppm and 1000 ppm): statistically different from the no adjuvant case
- height reduction of velvetleaf, statistical comparison of MIPAS with AMS (Bartlett's test) (Velvetleaf; water hardness 0 ppm, high MIPAS concentrations): statistically different from the AMS results
- fresh weight of velvetleaf, statistical comparison of MIPAS with AMS (Bartlett's test) (Velvetleaf; water hardness 1000 ppm): no statistically significant difference
- height reduction of velvetleaf, statistical comparison of MIPAS with AMS (Bartlett's test) (Velvetleaf; water hardness 1000 ppm): not statistically significant
- height reduction of soybean, statistical comparison with the no adjuvant case (soybeans): not significantly different from the no adjuvant case
- weight reduction of soybean, statistical comparison with the no adjuvant case (soybeans): not significantly different from the no adjuvant case
- fresh weight of sorghum, statistical comparison with the no adjuvant case (Bartlett's test) (grain sorghum (Milo); 0 ppm water hardness): not significantly different from the no adjuvant case
- height reduction of sorghum, statistical comparison with the no adjuvant case (Bartlett's test) (grain sorghum (Milo); 0 ppm water hardness): not significantly different from the no adjuvant case
- fresh weight of sorghum, statistical comparison of MIPAS with AMS (Bartlett's test) (grain sorghum (Milo); 342 ppm of water hardness): not significantly different from each other
- height reduction of sorghum, statistical comparison of MIPAS with AMS (Bartlett's test) (grain sorghum (Milo); 342 ppm of water hardness): not significantly different than the AMS results
- height reduction of sorghum, statistical comparison with the no adjuvant case (Bartlett's test) (grain sorghum (Milo); 342 ppm of water hardness): significantly different than the no adjuvant case
- fresh weight of sorghum, statistical comparison with the no adjuvant case (Bartlett's test) (grain sorghum (Milo); [1]): significantly different than the no adjuvant case
- fresh weight of morningglory, statistical comparison of MIPAS with AMS (Bartlett's test) (Morningglory Entireleaf; water hardness 0 ppm): no statistically significant difference
- fresh weight of morningglory, statistical comparison with the no adjuvant case (Bartlett's test) (Morningglory Entireleaf; water hardness 0 ppm): statistical difference
- height reduction of morningglory, statistical comparison of MIPAS with AMS (Bartlett's test) (Morningglory Entireleaf; water hardness 0 ppm): no statistically significant difference
- height reduction of morningglory, statistical comparison with the no adjuvant case (Bartlett's test) (Morningglory Entireleaf; [2]): statistically different from the no adjuvant case
- fresh weight of morningglory, statistical comparison of MIPAS with AMS (Bartlett's test) (Morningglory Entireleaf; water hardness 1000 ppm): no statistically significant difference
- height reduction of morningglory, statistical comparison of MIPAS with AMS (Bartlett's test) (Morningglory Entireleaf; water hardness 1000 ppm): not statistically significant
- fresh weight of morningglory, statistical comparison with the no adjuvant case (Bartlett's test) (Morningglory Entireleaf; [3]): statistically different from the no adjuvant case
- height reduction of morningglory, statistical comparison with the no adjuvant case (Bartlett's test) (Morningglory Entireleaf; [4]): statistically different from the no adjuvant case
